Measured values reported in patent publication US20240148821A1, “PHARMACEUTICAL USE OF CYCLIC PEPTIDE COMPOUND” (CHUGAI SEIYAKU KABUSHIKI KAISHA, priority 2021, published 2024).
Numbered stars: 1 amine (or outer) side, 2 acyl side, 3 side chain; on linkers, the order of the positions; unused ones are H or OH. Bridge positions count the residues as written; N and C are the ends. Square brackets hold non-standard residues; d marks the D form. Peptide text beside a SMILES is read from it. * marks the point of attachment. hPhe(3,5-F2-4-CF3) = N[C@@H](CCc1cc(F)c(C(F)(F)F)c(F)c1)C(=O)O; hPhe(3-Cl-4-CF3) = N[C@@H](CCc1ccc(C(F)(F)F)c(Cl)c1)C(=O)O; hPhe(3-F,4-CF3) = N[C@@H](CCc1ccc(C(F)(F)F)c(F)c1)C(=O)O; X27 = CN([C@@H](Cc1ccc(C(F)(F)F)nc1)C(=O)[*:2])[*:1]; hPhe(4-CF3) = N[C@@H](CCc1ccc(C(F)(F)F)cc1)C(=O)O; NEtPhe(4-Me) = CCN[C@@H](Cc1ccc(C)cc1)C(=O)O; NMePhe(4-Cl) = CN[C@@H](Cc1ccc(Cl)cc1)C(=O)O; NMePhe(4-Me) = CN[C@@H](Cc1ccc(C)cc1)C(=O)O; NMedβ3hAla = C[C@H](CC(=O)[*:2])N(C)[*:1]; NMeGly(cPent) = CN[C@H](C(=O)O)C1CCCC1; X136 = O=C(CN(CCN1CCNCC1)[*:1])[*:2]; NMeCha = CN[C@@H](CC1CCCCC1)C(=O)O; Hyp = O=C(O)[C@@H]1C[C@@H](O)CN1; NMeChg = CN[C@H](C(=O)O)C1CCCCC1; NMeI = CC[C@H](C)[C@H](NC)C(=O)O; X138 = NCCOCCN(CC(=O)[*:2])[*:1]; Cha = N[C@@H](CC1CCCCC1)C(=O)O; NMeD = CN[C@@H](CC(=O)O)C(=O)O; NMeL = CN[C@@H](CC(C)C)C(=O)O; NMePra = C#CC[C@H](NC)C(=O)O; NMeV = CN[C@H](C(=O)O)C(C)C; hSer = N[C@@H](CCO)C(=O)O; NMeA = CN[C@@H](C)C(=O)O; NMeAib = CNC(C)(C)C(=O)O; Piperidide = C1CCN(*)CC1; Pyrrolidide = C1CCN(*)C1; Ac5c = NC1(C(=O)O)CCCC1; Aze = O=C(O)[C@@H]1CCN1; Alloc = C=CCOC(=O)*; NEtG = CCNCC(=O)O; Sar = CNCC(=O)O

Tests used:
[1] = target: protein-protein interaction between Kras and SOS1 (biotin-tagged human Kras loaded with GDP, His-tagged human SOS1) (Homo sapiens (Human), UniProt P01116, G12D); assay: Protein-protein interaction inhibition between Kras and SOS1 (KrasG12D-SOS PPI) using AlphaScreen; format: biochemical; details: AlphaScreen; biotin-tagged human Kras loaded with GDP, His-tagged human SOS1; read-out: KRAS G12D-SOS PPI IC50;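 further: kras produced in E. coli, Ni-coupled donor beads and streptavidin acceptor beads, excitation 680 nm with emission detected at 520–620 nm via singlet oxygen transfer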
[2] = tested on: Human pancreatic cancer cell line AsPC-1 (G12D mutation Kras); assay: AsPC-1 cell growth inhibition (AsPC-1 CGI); format: cell-based; details: read-out: AsPC-1 cell growth inhibition, 50% growth inhibitory concentration (IC50 value); 96 hours, CellTiter-Glo, values classified in ranges
Experimental: Test compounds were serially dilated with dimethyl sulfoxide, and 200 nL was then dispensed to a U-bottom 96-well plate using Labcyte Echo. […] The cell suspension was dispensed to a. plate containing a test compound at 100 μL per well and incubated at 37° C. in a 5% carbon dioxide gas incubator. 96 hours later, 80 μL of CellTiter-Glo (Promega) was added to each well and fluorescence was measured.

Question: With `CC(C)C[C@H]1C(=O)N[C@@H](CC2CCCCC2)C(=O)N(C)CC(=O)N(C)CC(=O)N(C)[C@@H](CC2CCCCC2)C(=O)N(C)CC(=O)N[C@@H](CCc2ccc(C(F)(F)F)c(Cl)c2)C(=O)N2CCC[C@H]2C(=O)NC2(CCCC2)C(=O)N(C)[C@@H](C2CCCCC2)C(=O)N(C)[C@H](C(=O)N2CCCCC2)CC(=O)N1C` [Compound 1] ([NMeL][Cha][Sar][Sar][NMeCha][Sar][hPhe(3-Cl-4-CF3)]P[Ac5c][NMeChg][NMeD]-Piperidide; lactam N-11) as the compound, how does the IC50 [1] read?
Answer: 5.9 nM

Question: And the IC50 [2]?
Answer: > 500 nM

Question: For `CC[C@H](C)[C@@H]1NC(=O)[C@H](CC(C)C)N(C)C(=O)C[C@@H](C(=O)N(C)C)N(C)C(=O)[C@H](C2CCCC2)N(C)C(=O)C2(CCCC2)NC(=O)[C@@H]2CCCN2C(=O)[C@H](CCc2ccc(C(F)(F)F)c(Cl)c2)NC(=O)CN(CC)C(=O)[C@H](Cc2ccc(C)cc2)N(C)C(=O)[C@@H]2CCN2C(=O)[C@H](C)N(C)C1=O` [Compound 5] ([NMeL]I[NMeA][Aze][NMePhe(4-Me)][NEtG][hPhe(3-Cl-4-CF3)]P[Ac5c][NMeGly(cPent)][NMeD]-NMe2; lactam N-11), which IC50 [1] is on record?
Answer: 0.99 nM

Question: What about the IC50 [2] of the same compound?
Answer: ≤ 20 nM

Question: Which results are given for `CC[C@H](C)[C@@H]1NC(=O)[C@H](CC(C)C)N(C)C(=O)C[C@@H](C(=O)N2CCCCC2)N(C)C(=O)[C@H](C2CCCCC2)N(C)C(=O)C2(CCCC2)NC(=O)[C@H](Cc2ccc(C(F)(F)F)nc2)N(C)C(=O)[C@H](CCc2ccc(C(F)(F)F)c(Cl)c2)NC(=O)CN(C)C(=O)[C@H](CC2CCCCC2)N(C)C(=O)CN(C)C(=O)CN(C)C1=O` [Compound 10] ([NMeL]I[Sar][Sar][NMeCha][Sar][hPhe(3-Cl-4-CF3)][X27][Ac5c][NMeChg][NMeD]-Piperidide; lactam N-11)?
Answer: IC50 [1]: 18 nM; IC50 [2]: > 500 nM

Question: `C=CCOC(=O)NCCCC[C@@H]1NC(=O)[C@H](CCc2ccc(C(F)(F)F)cc2)NC(=O)CN(C)C(=O)[C@H](Cc2ccc(Cl)cc2)N(C)C(=O)CN(C)C(=O)CN(C)C(=O)[C@H]([C@@H](C)CC)NC(=O)[C@H](CC(C)C)N(C)C(=O)C[C@@H](C)N(C)C(=O)[C@H](CC(C)C)NC(=O)C(C)(C)N(C)C1=O` [Compound 12] (cyclo(I[Sar][Sar][NMePhe(4-Cl)][Sar][hPhe(4-CF3)]K(Alloc)[NMeAib]L[NMedβ3hAla][NMeL])) was tested. Which IC50 [1] did it give?
Answer: 240 nM

Question: And the IC50 [2]?
Answer: > 500 nM

Question: `CC[C@H](C)[C@@H]1NC(=O)[C@H](CC(C)C)N(C)C(=O)C[C@@H](C(=O)N(C)C)N(C)C(=O)[C@H](C2CCCC2)N(C)C(=O)C2(CCCC2)NC(=O)[C@@H]2CCCN2C(=O)[C@H](CCc2ccc(C(F)(F)F)c(F)c2)NC(=O)CN(C)C(=O)[C@H](Cc2ccc(C)cc2)N(C)C(=O)[C@@H]2CCN2C(=O)[C@H](C)N(C)C1=O` [Compound 16] ([NMeL]I[NMeA][Aze][NMePhe(4-Me)][Sar][hPhe(3-F,4-CF3)]P[Ac5c][NMeGly(cPent)][NMeD]-NMe2; lactam N-11) was tested. Which IC50 [1] did it give?
Answer: 0.7 nM

Question: And the IC50 [2]?
Answer: ≤ 20 nM

Question: What does the source list for `COCC[C@@H]1NC(=O)[C@H](CC(C)C)N(C)C(=O)C[C@@H](C(=O)N2CCCCC2)N(C)C(=O)[C@H](C(C)C)N(C)C(=O)C2(CCCC2)NC(=O)[C@@H]2CCCN2C(=O)[C@H](CCc2ccc(C(F)(F)F)c(Cl)c2)NC(=O)CN(C)C(=O)[C@H](CC2CCCCC2)N(C)C(=O)[C@@H]2CCN2C(=O)[C@H](C)N(C)C1=O` [Compound 17] ([NMeL][hSer](Me)[NMeA][Aze][NMeCha][Sar][hPhe(3-Cl-4-CF3)]P[Ac5c][NMeV][NMeD]-Piperidide; lactam N-11)?
Answer: IC50 [1]: 30 nM; IC50 [2]: > 500 nM

Question: With `CC[C@H](C)[C@@H]1NC(=O)[C@H](CC(C)C)N(C)C(=O)C[C@@H](C(=O)N2CCCC2)N(C)C(=O)[C@H](C2CCCC2)N(C)C(=O)C2(CCCC2)NC(=O)[C@@H]2CCCN2C(=O)[C@H](CCc2ccc(C(F)(F)F)c(F)c2)NC(=O)CN(C)C(=O)[C@H](Cc2ccc(C)cc2)N(C)C(=O)[C@@H]2CCN2C(=O)[C@H](C)N(C)C1=O` [Compound 20] ([NMeL]I[NMeA][Aze][NMePhe(4-Me)][Sar][hPhe(3-F,4-CF3)]P[Ac5c][NMeGly(cPent)][NMeD]-Pyrrolidide; lactam N-11) as the compound, how does the IC50 [1] read?
Answer: 0.76 nM

Question: What about the IC50 [2] of the same compound?
Answer: ≤ 20 nM

Question: With `C#CC[C@H]1C(=O)N(C)CC(=O)N[C@@H](CCc2ccc(C(F)(F)F)c(Cl)c2)C(=O)N2CCC[C@H]2C(=O)NC2(CCCC2)C(=O)N(C)[C@@H](C(C)C)C(=O)N(C)[C@H](C(=O)N2CCCCC2)CC(=O)N(C)[C@@H](CC(C)C)C(=O)N[C@@H]([C@@H](C)CC)C(=O)N(C)[C@@H](C)C(=O)N2CC[C@H]2C(=O)N1C` [Compound 32] ([NMeL]I[NMeA][Aze][NMePra][Sar][hPhe(3-Cl-4-CF3)]P[Ac5c][NMeV][NMeD]-Piperidide; lactam N-11) as the compound, how does the IC50 [1] read?
Answer: 20 nM

Question: What about the IC50 [2] of the same compound?
Answer: > 500 nM

Question: With `CCO[C@@H]1C[C@H]2C(=O)NC3(CCCC3)C(=O)N(C)[C@@H]([C@@H](C)CC)C(=O)N(C)[C@H](C)CC(=O)N(C)[C@@H](CC(C)C)C(=O)N[C@@H]([C@@H](C)CC)C(=O)N(C)[C@@H](C)C(=O)N3CC[C@H]3C(=O)N(CC)[C@@H](Cc3ccc(C)cc3)C(=O)N(C)CC(=O)N[C@@H](CCc3cc(F)c(C(F)(F)F)c(F)c3)C(=O)N2C1` [Compound 33] (cyclo([Ac5c][NMeI][NMedβ3hAla][NMeL]I[NMeA][Aze][NEtPhe(4-Me)][Sar][hPhe(3,5-F2-4-CF3)][Hyp](Et))) as the compound, how does the IC50 [1] read?
Answer: 6.9 nM

Question: What about the IC50 [2] of the same compound?
Answer: ≤ 20 nM

Question: `CC[C@H](C)[C@@H]1NC(=O)[C@H](CC(C)C)N(C)C(=O)C[C@@H](C(=O)N2CCCCC2)N(C)C(=O)[C@H](C2CCCCC2)N(C)C(=O)C2(CCCC2)NC(=O)CN(CCN2CCNCC2)C(=O)[C@H](CCc2ccc(C(F)(F)F)c(Cl)c2)NC(=O)CN(C)C(=O)[C@H](CC2CCCCC2)N(C)C(=O)CN(C)C(=O)CN(C)C1=O` [Compound 2184, (11S,17S,26S,29S,33S,36S)-11-[2-[3-chloro-4-(trifluoromethyl)phenyl]ethyl]-36-cyclohexyl-17-(cyclohexylmethyl)-29-isobutyl-15,18,21,24,30,34,37-heptamethyl-26-[(1S)-1-methylpropyl]-9-(2-piperazin-1-ylethyl)-33-(piperidine-1-carbonyl)-6,9,12,15,18,21,24,27,30,34,37-undecazaspiro[4.33]octatriacontane-7.10,13,16,19,22,25,28,31,35,38-undecone] ([NMeL]I[Sar][Sar][NMeCha][Sar][hPhe(3-Cl-4-CF3)][X136][Ac5c][NMeChg][NMeD]-Piperidide; lactam N-11) was tested. Which IC50 [1] did it give?
Answer: 7.9 nM

Question: `CC[C@H](C)[C@@H]1NC(=O)[C@H](CC(C)C)N(C)C(=O)C[C@@H](C(=O)N2CCCCC2)N(C)C(=O)[C@H](C2CCCCC2)N(C)C(=O)C2(CCCC2)NC(=O)CN(CCOCCN)C(=O)[C@H](CCc2ccc(C(F)(F)F)c(Cl)c2)NC(=O)CN(C)C(=O)[C@H](CC2CCCCC2)N(C)C(=O)CN(C)C(=O)CN(C)C1=O` [Compound 2185, (11S,17S,26S,29S,33S,36S)-9-[2-(2-aminoethoxy)ethyl]-11-[2-[3-chloro-4-(trifluoromethyl)phenyl]ethyl]-36-cyclohexyl-17-(cyclohexylmethyl)-29-isobutyl-15,18,21,24,30,34,37-heptamethyl-26-[(1S)-1-methylpropyl]-33-(piperidine-1-carbonyl)-6,9,12,15,18,21,24,27,30,34,37-undecazaspiro[4.33]octatriacontane-7,10,13,16,19,22,25,28,31,35,38-undecone] ([NMeL]I[Sar][Sar][NMeCha][Sar][hPhe(3-Cl-4-CF3)][X138][Ac5c][NMeChg][NMeD]-Piperidide; lactam N-11) was tested. Which IC50 [1] did it give?
Answer: 2.4 nM
